One block for each compound: values may come before it. Active and inactive are the calls of the source.
Columns and labels:
[1] = target: Cytochrome P450 3A4 (Homo sapiens, UniProt P08684);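 note: CYP3A4 tested as one member of a cytochrome P450 panel screen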
[2] = target: T1, Cytochrome P450 1A2 (Homo sapiens, UniProt P05177);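 note: PubChem cytochrome P450 panel assay, CYP1A2 panel member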
T1 sequence (P05177 whole entry): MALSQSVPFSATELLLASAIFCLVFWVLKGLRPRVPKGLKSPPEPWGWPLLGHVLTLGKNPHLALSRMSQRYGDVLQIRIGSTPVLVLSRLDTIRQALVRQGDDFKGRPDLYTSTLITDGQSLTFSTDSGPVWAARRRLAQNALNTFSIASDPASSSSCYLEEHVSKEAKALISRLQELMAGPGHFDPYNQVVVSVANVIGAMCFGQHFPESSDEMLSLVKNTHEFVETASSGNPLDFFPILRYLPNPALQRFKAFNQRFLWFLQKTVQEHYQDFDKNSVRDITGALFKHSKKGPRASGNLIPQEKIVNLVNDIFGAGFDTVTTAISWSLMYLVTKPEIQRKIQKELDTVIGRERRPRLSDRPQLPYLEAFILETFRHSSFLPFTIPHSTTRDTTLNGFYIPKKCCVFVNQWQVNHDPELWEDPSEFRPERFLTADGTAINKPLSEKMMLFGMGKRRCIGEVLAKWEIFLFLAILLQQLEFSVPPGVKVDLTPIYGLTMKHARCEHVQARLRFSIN

[3] = target: T2, RNA-binding protein pos-1 (Caenorhabditis elegans, UniProt G5EF15); assay: disruptors of C. elegans POS-1 RNA interaction – biochemical, fluorescence polarization, dose response (AID 1964);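 note: purified POS-1 fused to maltose binding protein made in E. coli; potency of compounds blocking POS-1 binding to fluorescent RNA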
T2 sequence (G5EF15 whole entry): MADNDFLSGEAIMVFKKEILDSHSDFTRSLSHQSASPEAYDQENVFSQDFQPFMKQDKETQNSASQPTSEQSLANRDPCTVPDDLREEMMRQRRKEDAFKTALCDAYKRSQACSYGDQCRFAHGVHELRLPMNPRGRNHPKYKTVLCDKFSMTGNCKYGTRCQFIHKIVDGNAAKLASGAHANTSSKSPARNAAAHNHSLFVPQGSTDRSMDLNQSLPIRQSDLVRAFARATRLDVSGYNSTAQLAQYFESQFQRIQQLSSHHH

[4] = target: Peroxisome proliferator-activated receptor gamma/Nuclear receptor coactivator 1 (Homo sapiens, UniProt P37231); assay: (§1) TR-FRET dose response biochemical High Throughput Screening assay for agonists of the steroid receptor coactivator 1 (SRC-1) recruitment by the peroxisome proliferator-activated receptor gamma (PPAR gamma): non-selective agonists. [Related pubchem assays (depositor defined):AID1300, AID1808, AID504735, AID631]; format: protein assay
[5] = target: Peroxisome proliferator-activated receptor gamma/Nuclear receptor coactivator 3 (Homo sapiens, UniProt P37231); assay: as §1, with “3 (SRC-3)” for “1 (SRC-1)”, “assays: 1301 (Confirmation screen.), 1048 (Primary screen.)]” for “assays (depositor defined):AID1300, AID1808, AID504735, AID631]”; format: functional
[6] = target: T3, Zinc finger protein mex-5 (Caenorhabditis elegans, UniProt Q9XUB2); assay: potency of MEX-5 RNA-binding blockers – biochemical, C. elegans, fluorescence polarization, dose response (AID 1960)
T3 sequence (Q9XUB2 whole entry): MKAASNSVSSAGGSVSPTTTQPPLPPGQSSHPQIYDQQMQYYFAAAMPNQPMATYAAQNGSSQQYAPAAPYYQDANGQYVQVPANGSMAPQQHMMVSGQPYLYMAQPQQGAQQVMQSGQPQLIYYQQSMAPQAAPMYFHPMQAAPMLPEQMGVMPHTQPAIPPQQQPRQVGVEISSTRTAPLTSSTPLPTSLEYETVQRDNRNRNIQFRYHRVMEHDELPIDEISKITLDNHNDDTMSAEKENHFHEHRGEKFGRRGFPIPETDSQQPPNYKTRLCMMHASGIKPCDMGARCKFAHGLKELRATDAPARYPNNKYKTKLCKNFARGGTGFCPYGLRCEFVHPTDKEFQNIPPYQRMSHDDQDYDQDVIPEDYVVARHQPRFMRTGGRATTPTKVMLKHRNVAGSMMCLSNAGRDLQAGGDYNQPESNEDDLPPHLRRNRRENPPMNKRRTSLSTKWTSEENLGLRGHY

[7] = target: Peroxisome proliferator-activated receptor gamma/Nuclear receptor coactivator 2 (Homo sapiens, UniProt P37231); assay: TR-FRET dose response biochemical High Throughput Screening assay for agonists of the steroid receptor coactivator 2 (SRC-2) recruitment by the peroxisome proliferator-activated receptor gamma (PPAR gamma): non-selective agonists. [Related pubchem assays: 1297, 1032 ]; format: functional
[8] = target: T4, Corticotropin-releasing factor receptor 2/Corticotropin-releasing factor-binding protein (Homo sapiens, UniProt P24387+Q13324); assay: Dose Response confirmation of uHTS hits for small molecule antagonists of the CRF-binding protein and CRF-R2 receptor complex.; format: functional; settings: read-out: IC50_Mean
T4 sequence (Q13324 whole entry): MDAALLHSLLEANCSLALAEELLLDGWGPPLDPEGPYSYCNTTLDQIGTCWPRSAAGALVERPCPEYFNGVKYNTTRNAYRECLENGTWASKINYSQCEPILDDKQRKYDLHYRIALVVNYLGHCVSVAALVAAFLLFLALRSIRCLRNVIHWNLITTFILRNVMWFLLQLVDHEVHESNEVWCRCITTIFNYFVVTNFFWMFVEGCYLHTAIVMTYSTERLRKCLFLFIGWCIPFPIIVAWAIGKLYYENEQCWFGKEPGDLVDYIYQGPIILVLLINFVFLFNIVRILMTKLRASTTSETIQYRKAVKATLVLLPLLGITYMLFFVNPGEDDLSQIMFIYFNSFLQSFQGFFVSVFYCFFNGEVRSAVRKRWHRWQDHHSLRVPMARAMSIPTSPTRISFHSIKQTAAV
T4 sequence (P24387 whole entry): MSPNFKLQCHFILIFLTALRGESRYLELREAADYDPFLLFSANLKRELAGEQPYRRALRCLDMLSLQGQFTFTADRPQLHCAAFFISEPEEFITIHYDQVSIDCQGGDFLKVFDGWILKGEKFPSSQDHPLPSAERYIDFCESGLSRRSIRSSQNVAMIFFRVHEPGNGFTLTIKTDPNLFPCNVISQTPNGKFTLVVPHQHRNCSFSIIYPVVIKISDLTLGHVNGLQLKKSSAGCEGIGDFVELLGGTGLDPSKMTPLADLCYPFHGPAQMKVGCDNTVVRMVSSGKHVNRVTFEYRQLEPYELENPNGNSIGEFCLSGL

[9] = target: T4, Corticotropin-releasing factor receptor 2/Corticotropin-releasing factor-binding protein; assay: activators of CRF receptor 2 with binding protein – uHTS hits, confirmation (AID 602473); format: functional; settings: read-out: EC50_Mean
[10] = target: FAD-linked sulfhydryl oxidase ALR (Homo sapiens, UniProt P55789); assay: ALR-catalysed DTT oxidation blockers – biochemical, H2O2 detection, luminescence, cherry-pick, dose response (AID 493248)
[11] = target: T5, Trace amine-associated receptor 1 (Homo sapiens, UniProt Q96RJ0); assay: Fluorescence-based cell-based high throughput dose response assay to identify agonists of the human trace amine associated receptor 1 (TAAR1).; format: functional
T5 sequence (Q96RJ0 whole entry): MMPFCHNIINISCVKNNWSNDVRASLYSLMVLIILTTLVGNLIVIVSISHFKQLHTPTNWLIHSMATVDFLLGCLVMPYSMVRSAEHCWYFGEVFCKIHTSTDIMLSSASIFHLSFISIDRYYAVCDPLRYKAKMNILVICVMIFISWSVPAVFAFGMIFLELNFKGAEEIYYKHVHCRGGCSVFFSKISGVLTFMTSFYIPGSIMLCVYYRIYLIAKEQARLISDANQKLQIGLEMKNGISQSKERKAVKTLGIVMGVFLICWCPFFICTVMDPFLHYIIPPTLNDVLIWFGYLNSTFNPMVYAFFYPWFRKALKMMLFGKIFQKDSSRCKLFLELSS

[12] = target: T5, Trace amine-associated receptor 1; assay: Counterscreen for agonists of the human trace amine associated receptor 1 (hTAAR1): Fluorescence-based cell-based high throughput dose response assay to identify hTAAR1 agonist that also desensitize TAAR1 receptor response.; format: functional
[13] = target: Cytochrome P450 2C19 (Homo sapiens, UniProt P33261); assay: Cytochrome panel assay with activity outcomes. Panel member name: p450-cyp2c19 Compounds with AC50 equal or less than 10 uM are considered active; format: functional; settings: read-out: AC50
[14] = target: Cytochrome P450 2C9 (Homo sapiens, UniProt P11712)
[15] = cells; format: functional, cell-based
[16] = target: T6, Nuclear receptor subfamily 0 group B member 1 (Homo sapiens, UniProt P51843); format: functional, cell-based;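 note: HEK293T cells transfected with SF-1 and DAX-1 plus StAR promoter luciferase reporter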
T6 sequence (P51843 whole entry): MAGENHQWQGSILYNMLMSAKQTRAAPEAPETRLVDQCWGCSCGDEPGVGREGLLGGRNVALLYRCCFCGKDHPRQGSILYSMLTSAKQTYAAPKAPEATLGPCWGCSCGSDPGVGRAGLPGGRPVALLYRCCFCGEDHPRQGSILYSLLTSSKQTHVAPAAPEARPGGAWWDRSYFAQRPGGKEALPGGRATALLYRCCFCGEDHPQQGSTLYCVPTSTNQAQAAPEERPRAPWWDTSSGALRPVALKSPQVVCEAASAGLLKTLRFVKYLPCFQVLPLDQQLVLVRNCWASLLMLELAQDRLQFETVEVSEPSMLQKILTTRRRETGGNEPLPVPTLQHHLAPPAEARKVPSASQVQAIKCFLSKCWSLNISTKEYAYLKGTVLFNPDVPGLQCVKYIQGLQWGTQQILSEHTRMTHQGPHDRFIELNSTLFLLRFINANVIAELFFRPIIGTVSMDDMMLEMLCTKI

Sequence of Cytochrome P450 3A4 (P08684 whole entry): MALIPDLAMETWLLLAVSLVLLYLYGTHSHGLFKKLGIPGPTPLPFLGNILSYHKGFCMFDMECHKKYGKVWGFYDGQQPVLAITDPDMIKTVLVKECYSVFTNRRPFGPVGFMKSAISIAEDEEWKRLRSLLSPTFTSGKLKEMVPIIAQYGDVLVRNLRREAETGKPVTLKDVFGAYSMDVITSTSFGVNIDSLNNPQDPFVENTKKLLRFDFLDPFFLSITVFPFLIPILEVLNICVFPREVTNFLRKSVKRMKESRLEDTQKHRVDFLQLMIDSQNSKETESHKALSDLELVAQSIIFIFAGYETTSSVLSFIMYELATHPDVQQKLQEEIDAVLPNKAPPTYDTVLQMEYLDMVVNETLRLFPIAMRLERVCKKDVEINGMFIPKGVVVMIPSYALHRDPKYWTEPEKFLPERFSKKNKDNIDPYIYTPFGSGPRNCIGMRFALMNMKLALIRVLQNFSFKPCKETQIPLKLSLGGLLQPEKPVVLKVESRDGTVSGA
Sequence of FAD-linked sulfhydryl oxidase ALR (P55789 whole entry): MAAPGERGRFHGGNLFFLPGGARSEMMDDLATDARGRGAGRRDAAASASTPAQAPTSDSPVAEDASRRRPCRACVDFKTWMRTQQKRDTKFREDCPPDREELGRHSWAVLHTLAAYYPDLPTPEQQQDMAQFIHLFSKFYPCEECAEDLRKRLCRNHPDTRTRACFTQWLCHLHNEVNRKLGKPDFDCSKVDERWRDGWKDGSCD
Sequence of Cytochrome P450 2C19 (P33261 whole entry): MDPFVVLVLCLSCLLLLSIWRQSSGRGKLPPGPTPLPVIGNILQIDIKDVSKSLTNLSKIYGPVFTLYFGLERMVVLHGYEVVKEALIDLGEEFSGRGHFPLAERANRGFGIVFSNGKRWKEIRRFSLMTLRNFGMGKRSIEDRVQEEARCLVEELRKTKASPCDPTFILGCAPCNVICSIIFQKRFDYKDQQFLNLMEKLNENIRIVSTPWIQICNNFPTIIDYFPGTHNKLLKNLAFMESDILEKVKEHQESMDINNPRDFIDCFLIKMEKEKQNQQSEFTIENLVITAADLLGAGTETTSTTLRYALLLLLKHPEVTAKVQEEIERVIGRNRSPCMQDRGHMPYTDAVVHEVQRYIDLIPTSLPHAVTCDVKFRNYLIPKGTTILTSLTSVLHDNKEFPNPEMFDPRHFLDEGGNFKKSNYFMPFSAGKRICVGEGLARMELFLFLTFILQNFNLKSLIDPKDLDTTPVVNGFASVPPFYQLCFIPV
Sequence of Peroxisome proliferator-activated receptor gamma/Nuclear receptor coactivator 1 (P37231 whole entry): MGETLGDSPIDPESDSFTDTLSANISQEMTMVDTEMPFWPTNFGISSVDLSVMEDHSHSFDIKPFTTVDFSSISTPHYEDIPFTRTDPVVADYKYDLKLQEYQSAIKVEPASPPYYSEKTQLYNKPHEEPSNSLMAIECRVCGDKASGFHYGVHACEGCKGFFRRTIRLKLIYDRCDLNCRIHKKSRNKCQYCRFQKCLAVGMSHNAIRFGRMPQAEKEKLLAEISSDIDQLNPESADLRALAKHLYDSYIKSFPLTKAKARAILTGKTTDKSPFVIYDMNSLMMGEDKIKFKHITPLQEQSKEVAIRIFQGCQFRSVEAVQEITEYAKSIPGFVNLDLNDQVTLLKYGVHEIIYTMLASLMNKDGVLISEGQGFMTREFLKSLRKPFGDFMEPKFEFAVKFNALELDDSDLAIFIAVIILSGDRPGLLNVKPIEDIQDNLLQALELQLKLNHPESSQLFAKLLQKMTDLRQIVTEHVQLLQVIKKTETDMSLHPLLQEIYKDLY
Sequence of Peroxisome proliferator-activated receptor gamma/Nuclear receptor coactivator 1 (Q15788 whole entry, further chain): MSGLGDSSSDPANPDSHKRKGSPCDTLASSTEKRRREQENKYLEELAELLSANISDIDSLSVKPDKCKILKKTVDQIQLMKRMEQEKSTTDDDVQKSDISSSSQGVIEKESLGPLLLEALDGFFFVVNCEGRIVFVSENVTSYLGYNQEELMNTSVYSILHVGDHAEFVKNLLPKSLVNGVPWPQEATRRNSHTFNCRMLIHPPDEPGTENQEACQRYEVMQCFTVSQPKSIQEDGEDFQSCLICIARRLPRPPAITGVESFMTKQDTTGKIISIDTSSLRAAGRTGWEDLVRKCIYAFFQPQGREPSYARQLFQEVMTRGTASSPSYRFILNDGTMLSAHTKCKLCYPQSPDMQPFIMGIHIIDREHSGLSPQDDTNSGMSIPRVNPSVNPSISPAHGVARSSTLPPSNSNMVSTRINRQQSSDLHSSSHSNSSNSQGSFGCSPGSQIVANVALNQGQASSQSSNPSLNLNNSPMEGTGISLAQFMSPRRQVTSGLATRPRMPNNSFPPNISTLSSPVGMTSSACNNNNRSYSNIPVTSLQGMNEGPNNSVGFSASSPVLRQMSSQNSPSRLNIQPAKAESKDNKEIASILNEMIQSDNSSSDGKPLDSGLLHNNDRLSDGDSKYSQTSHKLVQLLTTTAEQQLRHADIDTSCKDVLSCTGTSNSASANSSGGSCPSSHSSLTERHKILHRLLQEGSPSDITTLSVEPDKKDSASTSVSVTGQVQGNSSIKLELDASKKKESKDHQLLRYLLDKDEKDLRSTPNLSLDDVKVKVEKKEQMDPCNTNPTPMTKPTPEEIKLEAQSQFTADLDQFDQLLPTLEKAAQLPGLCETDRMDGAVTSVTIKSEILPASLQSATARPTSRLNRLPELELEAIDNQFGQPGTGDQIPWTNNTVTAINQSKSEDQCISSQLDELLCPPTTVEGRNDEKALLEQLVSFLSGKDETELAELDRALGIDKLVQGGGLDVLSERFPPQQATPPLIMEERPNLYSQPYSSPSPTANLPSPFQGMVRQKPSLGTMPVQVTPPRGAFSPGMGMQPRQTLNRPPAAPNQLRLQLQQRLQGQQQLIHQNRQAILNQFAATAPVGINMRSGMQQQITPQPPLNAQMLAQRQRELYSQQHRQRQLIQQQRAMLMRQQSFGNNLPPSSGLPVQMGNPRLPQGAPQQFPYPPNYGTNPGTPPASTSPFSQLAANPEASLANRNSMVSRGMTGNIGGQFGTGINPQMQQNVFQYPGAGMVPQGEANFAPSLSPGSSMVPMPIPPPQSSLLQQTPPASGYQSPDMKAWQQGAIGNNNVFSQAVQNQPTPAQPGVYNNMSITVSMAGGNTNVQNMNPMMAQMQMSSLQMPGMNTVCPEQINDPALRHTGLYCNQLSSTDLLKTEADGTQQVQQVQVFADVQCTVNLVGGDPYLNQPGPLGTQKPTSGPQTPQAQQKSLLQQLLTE
Sequence of Peroxisome proliferator-activated receptor gamma/Nuclear receptor coactivator 3 (P37231 whole entry): as the sequence (P37231 whole entry) above
Sequence of Peroxisome proliferator-activated receptor gamma/Nuclear receptor coactivator 3 (Q9Y6Q9 whole entry, further chain): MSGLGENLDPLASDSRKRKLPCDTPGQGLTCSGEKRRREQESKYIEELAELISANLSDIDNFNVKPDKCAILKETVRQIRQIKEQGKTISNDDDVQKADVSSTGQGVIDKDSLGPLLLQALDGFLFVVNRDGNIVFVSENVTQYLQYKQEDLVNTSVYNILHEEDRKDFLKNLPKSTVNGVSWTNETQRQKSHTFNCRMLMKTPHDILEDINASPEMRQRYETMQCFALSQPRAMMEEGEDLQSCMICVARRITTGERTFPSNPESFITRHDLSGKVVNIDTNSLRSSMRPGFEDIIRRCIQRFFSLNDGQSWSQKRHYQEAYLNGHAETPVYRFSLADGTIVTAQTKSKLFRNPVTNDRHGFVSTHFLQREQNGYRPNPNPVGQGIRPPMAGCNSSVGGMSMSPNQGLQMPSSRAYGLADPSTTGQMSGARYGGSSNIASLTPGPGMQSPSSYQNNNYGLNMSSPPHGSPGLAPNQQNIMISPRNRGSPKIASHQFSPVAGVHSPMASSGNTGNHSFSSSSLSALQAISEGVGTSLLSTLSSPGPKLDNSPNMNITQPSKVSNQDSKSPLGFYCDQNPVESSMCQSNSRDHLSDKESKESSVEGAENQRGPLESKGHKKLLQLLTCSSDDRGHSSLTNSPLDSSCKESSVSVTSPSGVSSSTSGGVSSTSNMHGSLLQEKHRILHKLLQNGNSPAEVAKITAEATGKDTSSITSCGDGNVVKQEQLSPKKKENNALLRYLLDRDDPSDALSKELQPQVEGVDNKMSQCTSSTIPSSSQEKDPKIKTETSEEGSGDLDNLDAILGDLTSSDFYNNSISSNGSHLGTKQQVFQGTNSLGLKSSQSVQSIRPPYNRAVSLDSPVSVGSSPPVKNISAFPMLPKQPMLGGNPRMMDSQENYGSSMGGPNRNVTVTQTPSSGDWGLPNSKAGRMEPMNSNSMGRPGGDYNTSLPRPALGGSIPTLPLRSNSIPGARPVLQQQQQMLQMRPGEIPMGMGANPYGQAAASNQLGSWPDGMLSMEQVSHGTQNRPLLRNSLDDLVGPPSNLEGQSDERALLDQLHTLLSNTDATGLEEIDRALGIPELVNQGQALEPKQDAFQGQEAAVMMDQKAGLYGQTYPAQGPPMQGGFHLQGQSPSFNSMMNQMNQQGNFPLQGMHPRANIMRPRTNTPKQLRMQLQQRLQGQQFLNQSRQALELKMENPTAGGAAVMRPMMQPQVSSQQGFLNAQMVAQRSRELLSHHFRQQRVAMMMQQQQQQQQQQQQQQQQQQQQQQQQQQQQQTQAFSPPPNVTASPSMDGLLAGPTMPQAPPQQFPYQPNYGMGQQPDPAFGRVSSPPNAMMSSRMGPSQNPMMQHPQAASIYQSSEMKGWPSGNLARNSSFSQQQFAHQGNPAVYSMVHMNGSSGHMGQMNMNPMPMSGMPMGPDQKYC

Compound: CCn1c(/C=C2/C(=O)N(C)c3ccccc32)nc2ccccc2c1=O
- AC50 [1]: inconclusive

Compound: O=C(c1ccc(F)cc1)C1CCN(CCCCc2ccccc2)CC1
- AC50 [2]: 31.6 µM (inconclusive)
- AC50 [1]: inconclusive

Compound: C=CCOc1ccc(C2C(C(=O)c3ccco3)=C(O)C(=O)N2c2nnc(C)s2)cc1 (stereo not drawn)
- EC50 [3]: > 300 µM (not active)
- EC50 [4]: > 79.4 µM (inactive)
- EC50 [5]: > 79.4 µM (not active)
- EC50 [6]: > 300 µM (not active)
- EC50 [7]: > 79.4 µM (not active)
- IC50 [8]: > 47.1 µM (inactive)
- EC50 [9]: > 53 µM (inactive)

Compound: CC(=Nc1ccccc1)C1=C(O)C(Cc2ccccc2)NC1=O (stereo not drawn)
- IC50 [15]: > 67.6 µM (inactive)
- IC50 [16]: 15.8 µM (inactive)

Now from value to compound, other results behind:

- AC50 [10]: 0.398 µM (active)
- EC50 [11]: 5.67 µM (active)
Compound: Cn1c(=O)c2[nH]c(Nc3ccccc3)nc2n(C)c1=O
- IC50 [12]: 9.39 µM (active)

- AC50 [13]: 0.158 µM (inconclusive)
- AC50 [14]: 5.01 µM (inconclusive)
- AC50 [1]: inconclusive
Compound: CCCC(=O)N1CCN(c2ccc(NC(=O)c3sc4ccccc4c3Cl)cc2)CC1
